This note sets out measurements from patent EP2999467B1, “USE OF A COMBINATION OF TWO COMPOUNDS FOR THE TREATMENT AND/OR PREVENTION OF BONE DISORDERS” (Institut National de la Recherche Agronomique (INRA), priority 2013, dated 2014).

For this assay, the system named is RAW264.7. Description: TRAP staining: RANKL-induced osteoclast differentiation, count of multinucleated TRAP+ cells. It is filed as cell-based. The text has this:
Les préostéoblastes primaires ont été isolés à partir de la calotte crânienne de rats Wistar nouveaux-nés par digestion enzymatique comme précédemment décrit [Declercq, H., Van den Vreken, N., De Maeyer, E., Verbeeck, R., Schacht, E., De Ridder, L., and Cornelissen, M. (2004). Isolation, proliferation and differentiation of osteoblastic cells to study cell/biomaterial interactions: comparison of different isolation techniques and source. Biomaterials 25, 757-68.]. Les précurseurs d'ostéoclastes RAW264.7 ont été obtenus auprès de l'ATCC (Manassas, VA, USA). Les préostéoblastes et les RAW264.7 ont été cultivés dans du milieu α-MEM (Invitrogen, Carlsbad, CA, USA) supplémenté avec 10% de SVF décomplémenté et de 100 unités/ml de pénicilline-streptomycine.
Pour la coloration TRAP, 60.000 cellules RAW264.7 ont été ensemencées dans des puits de plaques 12 puits pendant 12 heures puis traitées avec du DMSO/éthanol comme témoin ou de la fisétine (5 µM dans le DMSO) ou du DHA (50µM dans l'éthanol) ou la combinaison des deux (Fisétine 5 µM et DHA 50 µM) pendant 3 heures. Les cellules ont ensuite été induites à se différencier en présence de RANKL (50 ng/ml) avec du DMSO/éthanol ou de la fisétine (5 µM) ou du DHA (50 µM) ou la combinaison des deux (Fisétine 5 µM et DHA 50 µM) durant 4 jours avec un changement de milieux après 2 jours. De la BSA délipidée et sans endotoxines a été utilisée pour solubiliser le DHA avec un rapport 1/5 (BSA/DHA).
La coloration TRAP a été réalisée en utilisant le kit « leukocyte acid phosphatase » (Sigma-Aldrich) selon les recommandations du fournisseur après fixation des cellules. Les cellules TRAP+ multinucléées ont ensuite été comptées.

As a reminder, the inhibition is the percentage by which the read-out fell short of the control. Turning to `CC/C=C\C/C=C\C/C=C\C/C=C\C/C=C\C/C=C\CCC(=O)O` [DHA, acide docosahexaénoïque], the inhibition at 50 µM (Mus musculus, RAW264.7, 96 h, DHA 50µM, RANKL 50 ng/ml, 4 days, vs RANKL condition, read-out: inhibition de l'induction par RANKL de la formation de cellules multinucléées TRAP+ (ostéoclastes)) turned out to be 23%. In addition, for the setting “condition RANKL+DHA (50µM), RANKL alone 735+/-251”, the “ostéoclastes/cm^2” value was 564+/-259 ostéoclastes/cm^2.
